Holding throughout (assay type): in vivo, mice
The subject of one data set is plasma renin. Briefly: Plasma renin activity after 30 minutes of restraint stress. The conditions noted are these: losartan for 2 weeks vs vehicle; 30 minutes restraint stress. The procedure:
(§1) The hypothalamic pituitary axis (HPA) stress axis could influence the level of learned fear. In order to examine the chronic effects of losartan on the HPA, stress response was examined as well as plasma renin, a measure of endogenous angiotensin II activity. Animals were exposed to 30 minutes of restraint stress and plasma levels of corticosterone and renin measured.
(§2) As an index of central HPA neuronal activation, c-Fos activation was then examined in the paraventricular nucleus (PVN).

The nature of data set [1]: Baseline blood pressure measured by radiotelemetry. The procedure: Distance traveled during open-field testing (B) and percent time in open arms of elevated plus maze test of vehicle (C) (n=6-8/group).
In order to determine whether inhibition of the renin-angiotensin system is involved in modulating fear directly or indirectly, both acute and chronic inhibition of the angiotensin type 1 receptor (AT1R) were examined using the AT1R antagonist losartan (1 mg/kg and 10 mg/kg). […] A dose of 10 mg/kg is commonly used in rodents, however the effects on baseline blood pressure are mixed. When given acutely or chronically, some studies show reductions in baseline blood pressure while others show no effect.

Another data set concerns AT1R mRNA. Briefly: Amygdala AT1R mRNA expression after extinction training (RT-qPCR). The conditions noted are these: chronic losartan vs vehicle, following extinction training; t(11)=2.8, P<0.05. For orientation: Quantitative PCR measures a nucleic acid by following its amplification.
For data set [2], the system named is animal model of PTSD-like symptoms. Briefly: Cued Pavlovian fear conditioning, extinction training and extinction retention after acute losartan. The procedure: 24 hr following fear acquisition, losartan (1 mg/kg or 10 mg/kg i.p) was given prior to extinction training (B, E; n=20-25/group). 24 hr following extinction training, and in the absence of drug, mice were tested for extinction retention of learned fear, expressed as total average freezing and in blocks of 5 CS tones (C,D,F,G). To further understand the mechanism by which angiotensin II blockers reduce PTSD symptoms, the effects of the selective AT1R antagonist losartan were examined in an animal model of PTSD-like symptoms. Animals were cue-fear trained using Pavlovian fear conditioning consisting of five pairings of a conditioned stimulus (CS) tone (12 kHz) co-terminating with a shock or unconditioned stimulus (US). […] Twenty-four hours later, the effects of losartan were examined on fear expression (also considered the extinction training session) to the presentation of 15 trials of CS cues in a different context. Groups were given either losartan (1 mg/kg or 10 mg/kg i.p.) or saline 40 minutes prior to fear expression/extinction training. […] Therefore in a separate group of animals, a higher dose of losartan (10 mg/kg i.p.) was examined. […] Twenty-four hours later in the absence of drug, long-term fear memory was assessed (extinction retention).

The test system is the same in data set [3]. Briefly: Cued Pavlovian fear conditioning and extinction after chronic losartan infusion by osmotic mini-pump. The procedure: Extinction training/fear expression was tested and total average freezing within the session (B) and represented in blocks of 5 CS tones (C) 24 hr following fear acquisition.
The chronic effects of AT1 R antagonism on the extinction of fear to were examined. Two-week osmotic mini-pumps were implanted and losartan (10 mg/kg/day) was subcutaneously infused. […] On day 10, animals underwent Pavlovian fear conditioning as described above.

A short description of data set [4]: Anxiety-like behavior in elevated plus maze and open field tests. The procedure:
Distance traveled during open-field testing (B) and percent time in open arms of elevated plus maze test of vehicle (C) (n=6-8/group). To determine whether losartan affects baseline levels of generalized anxiety, animals were tested in the elevated plus and open field mazes.

For the next data set, the system named is corticosterone. Briefly: Plasma corticosterone after 30 minutes of restraint stress. The note with it: losartan for 2 weeks vs vehicle; 30 minutes restraint stress. Here is the method: as §1
Another data set concerns c-Fos. Briefly: c-Fos activation in the paraventricular nucleus after restraint stress. The conditions noted are these: chronic losartan vs vehicle, t(10)=2.3, P<0.05.
From the text: as §2

Setting [5] is: chronic losartan 10 mg/kg/day vs vehicle.

SMILES strings stand for the structures. Entries after “also recorded” stand apart in the source; their conditions may differ.

For the compound `CCCCc1nc(Cl)c(CO)n1Cc1ccc(-c2ccccc2-c2nn[nH]n2)cc1` [losartan], the “plasma renin activity following restraint stress” value in the data set with plasma renin is reported as “unchanged by losartan”. Also, the values for the baseline blood pressure result in data set [1] (acute losartan 10 mg/kg i.p. vs saline) and in data set [1] (setting [5]) were “no effect on baseline blood pressure” and “no differences between groups”, respectively. Besides, the “amygdala AT1R mRNA expression” value in the data set with AT1R mRNA is listed as “significantly reduced amygdala AT1R mRNA expression; also recorded: decreased amygdala AT1 receptor mRNA expression”. The “total average freezing during extinction training/fear expression” value in data set [2] (losartan 1 mg/kg i.p. 40 minutes prior to extinction training, vs saline) is listed as “no difference in total average freezing”; in data set [2] (losartan 10 mg/kg i.p. 40 minutes prior to extinction training, vs saline), “no differences between groups in total average freezing”. Further, the “freezing during extinction retention testing” value in data set [2] (losartan 1 mg/kg i.p., tested 24 hours after extinction training in the absence of drug, vs saline) is listed as “no freezing differences between groups”. Also, in data set [2] (losartan 10 mg/kg i.p., 24 hours later in the absence of drug, t(48)=2.9, P<0.01), the “total overall freezing during extinction retention” value is “total overall freezing was significantly reduced”. Also, the “freezing to CS presentation during extinction retention testing (repeated-measures 2 way ANOVA, main effect of treatment)” value in data set [2] (losartan 10 mg/kg i.p., F1,144=14.6, P<0.001) is recorded as “significantly less freezing to CS presentation”. For the same compound, the “freezing in blocks of five CS tone presentations during extinction retention (Bonferroni post hoc)” value was “significant reductions in freezing during the first and third blocks” in data set [2] (losartan 10 mg/kg i.p., P<0.05); “significant reductions in freezing during the second block” in data set [3] (losartan 10 mg/kg/day, P<0.05). Moreover, the “acquisition of fear (percent freezing)” value in data set [3] (losartan 10 mg/kg/day subcutaneous infusion, conditioning on day 10, vs vehicle) is “no difference in the acquisition of fear; also recorded: acquired fear similarly to control groups”. For the same compound, the “fear expression: total average freezing or blocks of 5 CS trials” value in data set [3] (losartan 10 mg/kg/day subcutaneous infusion, 24 hrs after fear acquisition) is “no significant difference in total average freezing”. Also, the “extinction retention of fear memory over the total average freezing period” value in data set [3] (losartan 10 mg/kg/day subcutaneous infusion, t(35)=2.4, P<0.05) is given as “enhanced extinction retention of fear memory”. Moreover, the “freezing to CS presentation during extinction retention testing (repeated-measures ANOVA, main effect of treatment)” value in data set [3] (losartan 10 mg/kg/day, F1,108=8.8, P<0.005) is on record as “significantly less freezing to CS presentation”. The “anxiety-like behavior (distance traveled, time spent in open arms)” value in data set [4] (acute losartan 10 mg/kg i.p. 40 minutes prior to test, vs saline) is listed as “No differences in anxiety-like behavior”. In addition, the “generalized anxiety (percent time in center and distance traveled, open field test)” value in data set [4] (setting [5]) is reported as “no differences between groups”. Further, the “plasma corticosterone levels following restraint stress” value in the data set with corticosterone is “unaltered by losartan”. In the data set with c-Fos, the “c-Fos activation in the paraventricular nucleus (PVN)” value is on record as “reduced c-Fos activation in the PVN; also recorded: less c-Fos activation in the paraventricular nucleus”.

Values taken from patent publication US20140255517A1, “MANAGING POST-TRAUMATIC STRESS DISORDER” (EMORY UNIVERSITY, priority 2013, published 2014).
